Experiments:
Assay type in all cases: cell-based
[1] = system: OVCAR-3 human ovarian cancer cell line; assay: MTT cytostatic-cytotoxic activity, OVCAR-3; settings: OVCAR-3, 48 h treatment; for GI50 / IC50: Homo sapiens; for IC50: kills 50% of the cells
Experimental: SKOV-3 (SKOV-3) (ATCC HTB 77) and OVCAR-3 (ATCC® HTB-161™)
Human ovarian adenocarcinoma cells, which are grown easily in monolayer culture with epithelial-like morphology. SKOV-3 are resistant to tumor necrosis factor (TNF) and to other cytotoxic drugs such as cisplatin, and adriamycin, while OVCAR-3 are resistant to adriamycin, cisplatin and melphalan. These cell lines express androgens, estrogens and progesterone receptors. When SKOV-3 or OVCAR-3 cells are subcutaneously implanted in nude mice, SCID mice, a moderately differentiated tumor develops, and the resulting model resembles primary ovarian adenocarcinoma in humans.
All cancer cell lines are stored in a liquid nitrogen tank in 2.5 ml cryovials (Corning-Costar, Cambridge, Mass.). DMSO (dimethylsulfoxide) act as a cryoprotectant and is added to prevent the formation of ice crystals which may lyse the cells. The Cells were grown as monolayer cultures in T-75 flasks (Corning-Costar, Cambridge, Mass.) and maintained at 37° C. in 5% CO2 incubator & 100% relative humidity. The cultures medium used are McCoy's 5a Medium, supplemented with 10% fetal bovine serum (FBS, Gibco) and 1% antibiotics (100 IU/ml penicillin/100 µg/ml streptomycin), sterilized by filtration (Corning-Costar filter, diameter 0.2 μm, RPMI-1640 and 50% RPMI-1640 (Catalog No 30-2001) plus 50% Mammary Epithelial Growth Medium (MEGM), supplemented with 10% fetal bovine serum (FBS, Gibco) and 1% antibiotics (100 IU/ml penicillin/100 μg/ml streptomycin). The passage is performed every 3-4 to days as follows: Cells are washed with sterile PBS (Phosphate buffered saline): 8 g/l NaCl, 0,2 g/l KCl, 1,15 g/l Na2HPO4καl 0,2 g/l KH2PO4. pH:7,4), add 2-3 ml 0.05% trypsin (Gibco 1:250) and 0.02% EDTA to cover the monolayer and incubate the flask at 3TC for 5-10 minutes. Trypsin-EDTA, is used mainly to detach the cells from the flask and prepare a single cell suspension. Finally, the number of cells can be determined by direct counting using a Neubauer chamber and cell viability is determined by staining the cells with trypan blue.
In the experimental study the in vitro effect of the compound type (I) was evaluated against ovarian cancer cell lines UWB1.289, UWB1.289+BRCA1 Kai SKOV-3.The cells were plated in 96-well plate (MTP) at a density of 1×10^4cells/m1 per well and maintained for 72 h at 3TC in a 5% CO2 incubator and grown as monolayers. The selection of the initial number of cells was made according to the rate of proliferation of the cell line, in order the cells throughout the experiment are in an exponential (log) growth phase. After 24 hours, cells were treated with 1-100 μmol/l of the tested compounds for 48 h. Experiments were carried out using triplicate wells. The viability of cultured cells was estimated by an (3-(4,5-imethylthiazol-2-yl)-2,5-diphenyltetrazolium bromide (MTT) metabolic assay as described previously (Finlay G J, Wilson W R and Baguley B C: Comparison of in vitro activity of cytotoxic drugs towards human carcinoma and leukaemia cell lines. Eur J Cancer Clin Oncol 22: 655-662, 1986; Alley M C, Scudiero D A, Monks A, Hursey M L, Czerwinski M J, Fine D L, et al. Feasibility of drug screening with panels of human tumor cell lines using a microculture tetrazolium assay. Cancer Res 1988; 48:589-601). MTT (Sigma, St Louis, Mo., USA) was dissolved in PBS in a concentration of 5 mg/ml, filter sterilized, and stored at 4° C. MTT (50 μl of stock solution) was added to each culture and incubated for 3 h at 3TC to allow metabolization. Formazan crystals were solubilized by DMSO (100 μl). Absorbance of the converted dye was measured at a wavelength of 540nm on ELISA reader (BioTek, Winooski, Vt., USA).
GI50: The mean concentration that causes 50% inhibition of cell growth (Growth Inhibition 50%). The calculation of the value is based on the formula: (Tt72x)−(Ct24)/(Ct72)-(Ct24)×100=50
TGI: The mean concentration that causes 100% inhibition of cell growth (Total Growth Inhibition). […]

[2] = system: MCF-7 human breast cancer cell line; assay: MTT cytostatic-cytotoxic activity, MCF-7; settings: for GI50 / IC50: Homo sapiens; for GI50: MCF7, 48 h; for GI50 / TGI: MCF-7, 48 h treatment; for IC50: MCF7, MCF-7, 48 h treatment, kills 50% of the cells
[3] = system: MOLT-4 human acute T-leukemia cell line; assay: MTT cytostatic-cytotoxic activity, MOLT-4; settings: MOLT-4, 48 h treatment; for GI50 / IC50: Homo sapiens; for IC50: kills 50% of the cells
[4] = system: A-549 human lung carcinoma cell line; assay: MTT cytostatic-cytotoxic activity, A-549; settings: for TGI: A-549, 48 h treatment; for GI50 / IC50: Homo sapiens, A549, A-549, 48 h treatment; for IC50: kills 50% of the cells
[5] = system: all 9 human cancer cell lines; assay: MTT cytostatic-cytotoxic activity, all 9 human cancer cell lines

Structure (SMILES) | GI50 [1] [µM] | IC50 [1] [µM] | TGI [1] [µM] | GI50 [2] [µM] | IC50 [2] [µM] | TGI [2] [µM] | GI50 [3] [µM] | IC50 [3] [µM] | TGI [3] [µM] | TGI [4] [µM] | GI50 [4] [µM] | IC50 [4] [µM] | IC50 ([5]; Homo sapiens, read-out: (cytotoxic)) [µM] | GI50 ([5]; in all 9 human cancer cell lines, read-out: IG50 (cytostatic)) [µM]
COc1cc(Cc2nnc3sc(/C=C/c4ccc(F)cc4)nn23)c(S(=O)(=O)N(C)C)cc1OC [TS25, 3-[2-(N,N-dimethylsulfamoyl)-4,5-dimethoxybenzyl]-6-(E)-4-fluorostyryl-1,2,4-triazolo[3,4-b]-1,3,4-thiazole] | 24 | 94 | 68 | 16 | 86 | 51 | 16 | 78 | 29 | 56 | 11 | 87 | – | –
COc1cc(Cc2nnc3sc(/C=C/c4ccc(Cl)cc4)nn23)c(S(=O)(=O)N(C)C)cc1OC [TS26, 3-[2-(N,N-dimethylsulfamoyl)-4,5-dimethoxybenzyl]-6-(E)-4-chlorostyryl-1,2,4-triazolo[3,4-b]-1,3,4-thiazole] | 41 | > 100 | 87 | 25 | > 100 | 67 | 32 | > 100 | 81 | 90 | 20 | > 100 | – | –
COc1ccc(Cc2nn3c(Cc4cc(OC)c(OC)cc4S(=O)(=O)N(C)C)nnc3s2)cc1 [TS50, 3-[2-(N,N-dimethylsulfamoyl)-4,5-dimethoxybenzyl]-6-(4-methoxybenzyl)-1,2,4-triazolo[3,4-b]-1,3,4-thiazole] | 5 | > 100 | 86 | 40 | > 100 | >100 | 10 | > 100 | >100 | >100 | 35 | > 100 | – | –
COc1cc(Cc2nnc3sc(-c4ccccc4N)nn23)c(S(=O)(=O)N(C)C)cc1OC [TS57, 3-[2-(N,N-dimethylosulfamoyl)-4,5-dimethoxybenzyl]-6-(2-aminophenyl)-1,2,4-triazolo[3,4-b]-1,3,4-thiazole] | 95 | > 100 | >100 | > 100 | > 100 | >100 | 94 | > 100 | >100 | >100 | > 100 | > 100 | – | –
COc1cc(Cc2nnc3sc(Cc4ccccc4)nn23)c(S(=O)(=O)N(C)C)cc1OC [TS62, 3-[2-(N,N-dimethylsulfamoyl)-4,5-dimethoxybenzyl]-6-benzyl-1,2,4-triazolo[3,4-b]-1,3,4-thiazole] | 8 | > 100 | 68 | 18 | > 100 | >100 | 7 | > 100 | 55 | 71 | 15 | > 100 | – | –
COc1cc(Cc2nnc3sc(-c4ccc(Cl)cc4)nn23)c(S(=O)(=O)N(C)C)cc1OC [TS63, 3-[2-(N,N-dimethylsulfamoyl)-4,5-dimethoxybenzyl]-6-(4-chlorophenyl)-1,2,4-triazolo[3,4-b]-1,3,4-thiazole] | 3 | > 100 | 32 | 22 | > 100 | 50 | 6 | 78 | 45 | 36 | 14 | 92 | – | –
COc1cc(Cc2nnc3sc(-c4ccc(N)cc4)nn23)c(S(=O)(=O)N(C)C)cc1OC [TS71, 3-[2-(N,N-dimethylsulfamoyl)-4,5-dimethoxybenzyl]-6-(4-aminophenyl)-1,2,4-triazolo[3,4-b]-1,3,4-thiazole] | 97 | > 100 | >100 | > 100 | > 100 | >100 | 55 | > 100 | >100 | >100 | > 100 | > 100 | – | –
COc1cc(Cc2nnc3sc(-c4ccccc4)nn23)c(S(=O)(=O)N(C)C)cc1OC [TS167, 3-[2-(N,N-dimethylsulfamoyI)-4,5-dimethoxy-benzyl]-6-phenyl-1,2,4-triazolo[3,4-b]-1,3,4-thiazole] | 65 | > 100 | >100 | 65 | > 100 | >100 | 42 | > 100 | >100 | >100 | 74 | > 100 | > 100 | < 100

From patent US10513529B2, “1,2,4-triazolo-[3,4-b]-1,3,4-thiadiazole derivatives” (GALENICA S.A., priority 2016, dated 2019)
